Data: US6790951B1, “Expression system in microorganism and its use for expressing heterologous and homologous proteins” (priority 1995, dated 2004)
Ends that are not written are not given here.

Key:
[1] = system: genes involved in sakacin P production (FIG. 1) in Lactobacillus sake LTH673; assay: Northern blotting of transcripts of the sakacin P genes in Bac- LTH673 cultures after adding the peptide; assay type: cell-based; conditions: purified or synthetic peptide
Text: 5. In bacteriocin deficient cultures of LTH673, transcription of the genes depicted in FIG. 1 could not be detected (by Northern blotting).
In cultures of Lactobacillus sake LTH673 with the Bac^− phenotype, transcription of the genes depicted in FIG. 1 could not be detected at any stage during growth (by Northern blotting).

[2] = Stability of the inducing component of culture medium to proteinase K and boiling; assay type: physicochemical
Text: (§1) The Bac^+ phenotype of cells in this bacterial culture was lost upon diluting a Bac^+ LTH673 culture more than ˜2000-fold in fresh MRS-medium. […] Loss of the Bac^+ phenotype upon dilution or plating could be prevented by adding supernatant of an overnight Bac^+ LTH673 culture at an end concentration of minimally 0.05% (v/v). […] Colonies obtained after plating cells from a Bac^− culture in the presence of supernatant from a Bac^+ culture all were Bac^+.

[3] = system: Lactobacillus sake LTH673; assay: Induction or maintenance of bacteriocin (sakacin P) production, inducing-peptide production and immunity in Lactobacillus sake LTH673 cultures; assay type: cell-based; conditions: for induction of immunity to sakacin P / induction of production of the inducing peptide itself: added to Bac- Lactobacillus sake LTH673 cells; for induction of bacteriocin (sakacin P) production: added to Bac- Lactobacillus sake LTH673 cultures
Text: This bacteriocin was later shown to be sakacin P (ref. 8). Bacterial cultures obtained by inoculating MRS medium (Difco Laboratories, Detroit, Mich., USA; or Oxoid ltd. Basingstoke, Hampshire, England) with material from this glycerol-stock produced sakacin P (Bac^+ phenotype) and, accordingly, were immune to purified sakacin P.
as §1
As indicated above Bac^− colonies of Lactobacillus sake LTH673 were obtained after plating cells from a Bac^+ culture. […] Glycerol stocks of such Bac^− cultures were made and fresh cultures obtained after inoculating MRS medium with an inoculum from such a glycerol stock again were Bac^−. In all cases tested, the only way to restore bacteriocin production was to add supernatant of a Bac^+ culture that thus, apparently, contains an inducing substance.
Lb. sake LTH673 (Bac^+) is immune to purified sakacin P and to several related purified bacteriocins. Immunity is caused by a specific protein that is produced concomitantly with the bacteriocin. Accordingly, we observed that the loss and induction of the Bac^+ phenotype was invariably accompanied by, respectively, the loss and induction of immunity to sakacin P. Another trait invariably linked to changes in the Bac phenotype was the inducing capacity itself: this capacity was only present in supernatants of Bac^+ cultures but not in the supernatants of Bac^− cultures.

[4] = system: Lactobacillus plantarum C11; assay: Induction of bacteriocin production / gene expression in Lactobacillus plantarum C11; assay type: cell-based
Protocol: Experiments similar to the ones described in examples 1 and 2 were conducted with the bacteriocin producing strain Lactobacillus plantarum C11. These experiments yielded results that were essentially similar to the results described in examples 1 and 2. The sequence of the amphiphilic inducing peptide for the Lactobacillus plantarum C11 regulatory system is: […](26 residues) (SEQ. ID. NO: 1).
Observations essentially similar to the ones described by examples 1,2, and 4 have been made in relation to bacteriocin production by Lactobacillus plantarum C11. This strain produces a large number of bacteriocins, corresponding immunity proteins, and the 26-residue inducing peptide described in example 3. The corresponding genes have been cloned and sequenced. […] Promoter elements in front of the transcription start-points resemble those found in front of the genes involved in sakacin P production, as indicated in FIG. 4.
A 26-residue peptide (SEQ ID NO:1) with the sequence given in example 3 was synthesized.

Sequence	detection of transcripts of the genes of FIG. 1 [1]	time until transcripts could be detected after adding the peptide [1]	inducing activity after boiling ([2]; boiling for 10 minutes)	inducing activity after proteinase K treatment ([2]; culture medium treated with proteinase K)	induction of immunity to sakacin P [3]	induction of production of the inducing peptide itself [3]	induction of immunity to sakacin P ([3]; listed as purified peptide)	induction of production of the inducing peptide itself ([3]; listed as purified peptide)	induction of bacteriocin (sakacin P) production [3]	induction of bacteriocin (sakacin P) production ([3]; listed as purified peptide)	inducing effects of the synthetic peptide compared with Bac+ culture supernatants and the purified peptide ([3]; synthetic peptide, in Lactobacillus sake LTH673)	induction of gene expression (bacteriocin, immunity and inducing peptide genes) ([4]; Bac- cultures of Lactobacillus plantarum C11)	inducing effects of the synthetic peptide compared with Bac+ culture supernatants and the purified peptide ([4]; synthetic peptide, in Lactobacillus plantarum C11)
MAGNSSNFIHKIKQIFTHR [19-residue peptide, purified or chemically synthesized]	several transcripts could be detected	≤ 30 min	not after boiling	lost	restored	restored	resulted in the induction	resulted in the induction	restored	resulted in the induction	same inducing effects		
KSSAYSLQMGATAIKQVKKLFKKWGW [26-residue inducing peptide]												gene expression can be induced	same inducing effects
